Laboratory results published in patent US9290457B2, “Substituted dihydropyrimidinones and their use as inhibitors of neutrophil elastase activity” (Boehringer Ingelheim International GmbH, priority 2014, dated 2016).

Target: neutrophil elastase (Homo sapiens (Human), UniProt P08246)
Test: Human Neutrophil Elastase Assay
Assay type: biochemical
Settings: substrate MeOSuc-Ala-Ala-Pro-Val-AMC
Description: Human Neutrophil Elastase Assay
All other materials were of the highest grade commercially available.
The following buffers were used: Compound buffer: 100 mM Tris, 500 mM NaCl, adjusted to pH 7.5; Assay buffer: 100 mM Tris, 500 mM NaCl, adjusted to pH 7.5, containing 0.01% BSA.
Assay conditions: Test compounds were prediluted in DMSO and subsequently in compound buffer (5% DMSO final). […] After inactivation of the enzyme, fluorescence intensities were measured at 380 nm excitation and 460 nm emission wavelengths.
Each plate contains wells with a high value control (DMSO+enzyme+substrate) and wells with a low value control (DMSO+inactivated enzyme+substrate). IC50 values were estimated using a sigmoidal concentration response curve with variable slope. Means of low values were taken as 0%, means of high values as 100%.

neutrophil elastase, sequence (P08246 30-247): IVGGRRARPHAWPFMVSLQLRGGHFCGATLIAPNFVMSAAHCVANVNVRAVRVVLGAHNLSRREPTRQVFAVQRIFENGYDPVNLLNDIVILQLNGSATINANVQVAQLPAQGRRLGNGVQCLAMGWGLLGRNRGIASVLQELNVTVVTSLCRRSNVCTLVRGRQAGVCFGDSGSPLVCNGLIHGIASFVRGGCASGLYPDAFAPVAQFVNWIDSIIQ

Row | IC50 [nM] | SMILES
1 | < 1 | CNC(=O)c1cc(C#N)ccc1C1C(C(C)=O)=C(C)N(c2cccc(C(F)(F)F)c2)C(=O)N1C (stereo not drawn) [Example 1.1]
2 | < 1 | CC(=O)C1=C(C)N(c2cccc(C(F)(F)F)c2)C(=O)N(C)C1c1ccc(C#N)cc1C(=O)N(C)Cc1nncn1C (stereo not drawn) [Example 1.79]
3 | < 1 | CC(=O)C1=C(C)N(c2cccc(C(F)(F)F)c2)C(=O)N(C)C1c1ccc(C#N)cc1-c1nnco1 (stereo not drawn) [Example 6, 4-[5-Acetyl-3,6-dimethyl-2-oxo-1-(3-trifluoromethyl-phenyl)-1,2,3,4-tetrahydro-pyrimidin-4-yl]-3-[1,3,4]oxadiazol-2-yl-benzonitrile]
4 | 4.5 | CC(=O)C1=C(C)N(c2cccc(C(F)(F)F)c2)C(=O)N(C)C1c1ccc(C#N)cc1C(=O)N1CCNC(C)C1 (stereo not drawn) [Example 2.15]
5 | 0.3 | CC(=O)C1=C(C)N(c2cccc(C(F)(F)F)c2)C(=O)N(C)C1c1ccc(C#N)cc1C(=O)N(C)Cc1cn[nH]c1 (stereo not drawn) [Example 1.56]
6 | < 1 | CCOC(=O)C1=C(C)N(c2cccc(C(F)(F)F)c2)C(=O)N(C)C1c1ccc(C#N)cc1C(=O)N1CCn2cnnc2C1 (stereo not drawn) [Example 3.41]
7 | 2.4 | CCOC(=O)C1=C(C)N(c2cccc(C(F)(F)F)c2)C(=O)N(C)C1c1ccc(C#N)cc1C(=O)N1C[C@H]2C[C@@H]1CN2 (stereo partly drawn) [Example 4.1]
8 | < 1 | CC(=O)C1=C(C)N(c2cccc(C(F)(F)F)c2)C(=O)N(C)C1c1ccc(C#N)cc1C(=O)NCc1ccnn1C (stereo not drawn) [Example 1.53]
9 | < 1 | CCOC(=O)C1=C(C)N(c2cccc(C(F)(F)F)c2)C(=O)N(C)C1c1ccc(C#N)cc1C(=O)N(C)CCN(C)C (stereo not drawn) [Example 3.36]
10 | < 1 | CC(=O)C1=C(C)N(c2cccc(C(F)(F)F)c2)C(=O)N(C)C1c1ccc(C#N)cc1C(=O)N1CCCC1 (stereo not drawn) [Example 1.11]
11 | < 1 | CC(=O)C1=C(C)N(c2cccc(C(F)(F)F)c2)C(=O)N(C)[C@@H]1c1ccc(C#N)cc1C(=O)NC1CC1 [Example 13.2]
12 | 2.6 | CC(=O)C1=C(C)N(c2cccc(C(F)(F)F)c2)C(=O)N(C)C1c1ccc(C#N)cc1-c1ccoc1 (stereo not drawn) [Example 5, 4-[5-Acetyl-3,6-dimethyl-2-oxo-1-(3-trifluoromethyl-phenyl)-1,2,3,4-tetrahydro-pyrimidin-4-yl]-3-furan-3-yl-benzonitrile]
13 | < 1 | CC(=O)C1=C(C)N(c2cccc(C(F)(F)F)c2)C(=O)N(C)C1c1ccc(C#N)cc1C(=O)NCc1cnn(C)c1 (stereo not drawn) [Example 1.54]
14 | < 1 | CC(=O)C1=C(C)N(c2cccc(C(F)(F)F)c2)C(=O)N(C)C1c1ccc(C#N)cc1-c1cnco1 (stereo not drawn) [Example 5.8]
15 | < 1 | CC(=O)C1=C(C)N(c2cccc(C(F)(F)F)c2)C(=O)N(C)C1c1ccc(C#N)cc1C(=O)N(C)Cc1ccnn1C (stereo not drawn) [Example 1.76]
16 | 1.4 | CCOC(=O)C1=C(C)N(c2cccc(C(F)(F)F)c2)C(=O)N(C)C1c1ccc(C#N)cc1C(=O)NC1CCOCC1 (stereo not drawn) [Example 3.29]
17 | 1 | CC(=O)C1=C(C)N(c2cccc(C(F)(F)F)c2)C(=O)N(C)C1c1ccc(C#N)cc1C(=O)NCc1ccccc1 (stereo not drawn) [Example 1.45]
18 | < 1 | CCOC(=O)C1=C(C)N(c2cccc(C(F)(F)F)c2)C(=O)N(C)C1c1ccc(C#N)cc1-c1cnn(C)c1 (stereo not drawn) [Example 14.5]
19 | < 1 | CCOC(=O)C1=C(C)N(c2cccc(C(F)(F)F)c2)C(=O)N(C)C1c1ccc(C#N)cc1C(=O)N(C)Cc1cnn(C)c1 (stereo not drawn) [Example 3.33]

Row | IC50 [nM] | SMILES
20 | < 1 | CC(=O)C1=C(C)N(c2cccc(C(F)(F)F)c2)C(=O)N(C)C1c1ccc(C#N)cc1C(=O)N(C)Cc1ccn(C)n1 (stereo not drawn) [Example 1.78]
21 | < 1 | CC(=O)C1=C(C)N(c2cccc(C(F)(F)F)c2)C(=O)N(C)C1c1ccc(C#N)cc1C(=O)N(C)Cc1ccon1 (stereo not drawn) [Example 1.59]
22 | 1.1 | CCOC(=O)C1=C(C)N(c2cccc(C(F)(F)F)c2)C(=O)N(C)C1c1ccc(C#N)cc1C(=O)NCCS(C)(=O)=O (stereo not drawn) [Example 3.32]
23 | 1.3 | CCOC(=O)C1=C(C)N(c2cccc(C(F)(F)F)c2)C(=O)N(C)C1c1ccc(C#N)cc1C(=O)NCC(C)(C)O (stereo not drawn) [Example 3.23]
24 | < 1 | CCOC(=O)C1=C(C)N(c2cccc(C(F)(F)F)c2)C(=O)N(C)C1c1ccc(C#N)cc1C(=O)NC12CCC1C2 (stereo not drawn) [Example 3.19]
25 | 3.2 | CCOC(=O)C1=C(C)N(c2cccc(C(F)(F)F)c2)C(=O)N(C)C1c1ccc(C#N)cc1-c1ccoc1 (stereo not drawn) [Example 14.1]
26 | < 1 | CC(=O)C1=C(C)N(c2cccc(C(F)(F)F)c2)C(=O)N(C)C1c1ccc(C#N)cc1C(=O)NCc1ccco1 (stereo not drawn) [Example 1.35]
27 | < 1 | COCCCN(C)C(=O)c1cc(C#N)ccc1C1C(C(C)=O)=C(C)N(c2cccc(C(F)(F)F)c2)C(=O)N1C (stereo not drawn) [Example 1.27]
28 | 5.4 | CC(=O)C1=C(C)N(c2cccc(C(F)(F)F)c2)C(=O)N(C)C1c1ccc(C#N)cc1C(=O)N1CC2CC1CN2 (stereo not drawn) [Example 2.14]
29 | < 1 | CC(=O)C1=C(C)N(c2cccc(C(F)(F)F)c2)C(=O)N(C)C1c1ccc(C#N)cc1C(=O)N1CCn2ccnc2C1 (stereo not drawn) [Example 1.70]
30 | 1 | CCOC(=O)C1=C(C)N(c2cccc(C(F)(F)F)c2)C(=O)N(C)C1c1ccc(C#N)cc1C(=O)NC1CCN(C)CC1 (stereo not drawn) [Example 3.31]
31 | < 1 | CC(=O)C1=C(C)N(c2cccc(C(F)(F)F)c2)C(=O)N(C)C1c1ccc(C#N)cc1-c1nc(C)no1 (stereo not drawn) [Example 9, 4-[5-Acetyl-3,6-dimethyl-2-oxo-1-(3-trifluoromethyl-phenyl)-1,2,3,4-tetrahydro-pyrimidin-4-yl]-3-(5-methyl-[1,3,4]oxadiazol-2-yl)-]
32 | < 1 | CCOC(=O)C1=C(C)N(c2cccc(C(F)(F)F)c2)C(=O)N(C)C1c1ccc(C#N)cc1C(=O)N[C@@H]1C[C@H]1N (stereo partly drawn) [Example 4.7]
33 | 1.4 | CC(=O)C1=C(C)N(c2cccc(C(F)(F)F)c2)C(=O)N(C)C1c1ccc(C#N)cc1-c1cccnc1 (stereo not drawn) [Example 5.9]
34 | 1.8 | CC(=O)C1=C(C)N(c2cccc(C(F)(F)F)c2)C(=O)N(C)C1c1ccc(C#N)cc1C(=O)NC(C)(C)C#N (stereo not drawn) [Example 1.33]
35 | < 1 | CCOC(=O)C1=C(C)N(c2cccc(C(F)(F)F)c2)C(=O)N(C)C1c1ccc(C#N)cc1-c1cnoc1 (stereo not drawn) [Example 14.3]
36 | 1.9 | CCOC(=O)C1=C(C)N(c2cccc(C(F)(F)F)c2)C(=O)N(C)C1c1ccc(C#N)cc1C1=COCC1 (stereo not drawn) [Example 14.4]
37 | < 1 | CCOC(=O)C1=C(C)N(c2cccc(C(F)(F)F)c2)C(=O)N(C)C1c1ccc(C#N)cc1C(=O)N(C)CCN (stereo not drawn) [Example 4.8]
38 | < 1 | CC(=O)C1=C(C)N(c2cccc(C(F)(F)F)c2)C(=O)N(C)C1c1ccc(C#N)cc1C(=O)N1CCC1 (stereo not drawn) [Example 1.7]

Row | IC50 [nM] | SMILES
39 | < 1 | CC(=O)C1=C(C)N(c2cccc(C(F)(F)F)c2)C(=O)N(C)C1c1ccc(C#N)cc1C(=O)N1Cc2cnn(C)c2C1 (stereo not drawn) [Example 1.71]
40 | < 1 | CC(=O)C1=C(C)N(c2cccc(C(F)(F)F)c2)C(=O)N(C)C1c1ccc(C#N)cc1C(=O)NCc1cccnn1 (stereo not drawn) [Example 1.50]
41 | < 1 | CC(=O)C1=C(C)N(c2cccc(C(F)(F)F)c2)C(=O)N(C)C1c1ccc(C#N)cc1C(=O)NCCCO (stereo not drawn) [Example 1.16]
42 | < 1 | CCOC(=O)C1=C(C)N(c2cccc(C(F)(F)F)c2)C(=O)N(C)C1c1ccc(C#N)cc1C(=O)NCCNC (stereo not drawn) [Example 4.9]
43 | < 1 | CNCCN(C)C(=O)c1cc(C#N)ccc1C1C(C(C)=O)=C(C)N(c2cccc(C(F)(F)F)c2)C(=O)N1C (stereo not drawn) [Example 2.12]
44 | < 1 | CCOC(=O)C1=C(C)N(c2cccc(C(F)(F)F)c2)C(=O)N(C)C1c1ccc(C#N)cc1C(=O)N(C)C (stereo not drawn) [Example 3, 4-(4-Cyano-2-dimethylcarbamoyl-phenyl)-3,6-dimethyl-2-oxo-1-(3-trifluoromethyl-phenyl)-1,2,3,4-tetrahydro-pyrimidine-5-carboxylic acid ethyl ester]
45 | < 1 | CC(=O)C1=C(C)N(c2cccc(C(F)(F)F)c2)C(=O)N(C)C1c1ccc(C#N)cc1-c1cncc(F)c1 (stereo not drawn) [Example 5.15]
46 | 1.7 | CC(=O)C1=C(C)N(c2cccc(C(F)(F)F)c2)C(=O)N(C)C1c1ccc(C#N)cc1C(=O)N1Cc2ccncc2C1 (stereo not drawn) [Example 1.66]
47 | < 1 | CC(=O)C1=C(C)N(c2cccc(C(F)(F)F)c2)C(=O)N(C)C1c1ccc(C#N)cc1C(=O)NC1CCOCC1 (stereo not drawn) [Example 1.24]
48 | < 1 | CC(=O)C1=C(C)N(c2cccc(C(F)(F)F)c2)C(=O)N(C)C1c1ccc(C#N)cc1C(=O)N(C)Cc1ccno1 (stereo not drawn) [Example 1.60]
49 | 3 | CCOC(=O)C1=C(C)N(c2cccc(C(F)(F)F)c2)C(=O)N(C)C1c1ccc(C#N)cc1C(=O)NC (stereo not drawn) [Example 3.4]
50 | < 1 | CC(=O)C1=C(C)N(c2cccc(C(F)(F)F)c2)C(=O)N(C)C1c1ccc(C#N)cc1C(=O)N(C)CCN(C)C (stereo not drawn) [Example 1.44]
51 | 1.1 | CCOC(=O)C1=C(C)N(c2cccc(C(F)(F)F)c2)C(=O)N(C)C1c1ccc(C#N)cc1C(=O)N(C)CCCOC (stereo not drawn) [Example 3.30]
52 | 2 | CCOC(=O)C1=C(C)N(c2cccc(C(F)(F)F)c2)C(=O)N(C)C1c1ccc(C#N)cc1C(=O)N1CCOCC1 (stereo not drawn) [Example 3.22]
53 | 2.8 | CCOC(=O)C1=C(C)N(c2cccc(C(F)(F)F)c2)C(=O)N(C)C1c1ccc(C#N)cc1C(=O)N1CC[C@@H](N(C)C)C1 (stereo partly drawn) [Example 3.37]
54 | < 1 | CCNC(=O)c1cc(C#N)ccc1C1C(C(C)=O)=C(C)N(c2cccc(C(F)(F)F)c2)C(=O)N1C (stereo not drawn) [Example 1.4]
55 | 5.7 | CC(=O)C1=C(C)N(c2cccc(C(F)(F)F)c2)C(=O)N(C)C1c1ccc(C#N)cc1-c1ccc2c(ccn2C)c1 (stereo not drawn) [Example 5.14]
56 | 3 | CCOC(=O)C1=C(C)N(c2cccc(C(F)(F)F)c2)C(=O)N(C)C1c1ccc(C#N)cc1C(=O)NCC#N (stereo not drawn) [Example 3.7]
57 | < 1 | CC(=O)C1=C(C)N(c2cccc(C(F)(F)F)c2)C(=O)N(C)C1c1ccc(C#N)cc1C(=O)N1CCn2cncc2C1 (stereo not drawn) [Example 1.69]
